Here are results for 1 molecule from publication PMC7206119, “RIP1 inhibition blocks inflammatory diseases but not tumor growth or metastases” (Cell Death and Differentiation, 2019).

The structures appear in SMILES notation.

Assay in all cases: biochemical
The target in assay [1] is T1, PKC_theta (Homo sapiens, UniProt Q04759).
T1 construct: gene PRKCQ
More on the design: Thermo Fisher SelectScreen kinase panel: Z'-LYTE and Adapta activity, LanthaScreen binding. The procedure, abridged:
(§1)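 GNE684 profiled at 10 µM across 221 kinases with Z'-LYTE and Adapta activity and LanthaScreen binding formats. Also screened at 10 µM against 468 kinases in KINOMEscan scanMAX binding assay.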

The target in assay [2] is PAK3 (Homo sapiens, UniProt O75914). More on the design: Thermo Fisher SelectScreen kinase panel: Z'-LYTE and Adapta activity, LanthaScreen binding. The procedure, abridged:
as §1

The target in assay [3] is T2, ARK5 (Homo sapiens, UniProt O60285).
T2 construct: gene NUAK1
More on the design: Thermo Fisher SelectScreen kinase panel: Z'-LYTE and Adapta activity, LanthaScreen binding. The procedure, abridged: as §1

Assay [4] has as its target T3, RSK1 (Homo sapiens, UniProt Q15418).
T3 construct: gene RPS6KA1
More on the design: Thermo Fisher SelectScreen kinase panel: Z'-LYTE and Adapta activity, LanthaScreen binding. The procedure, abridged:
as §1

Assay [5] deals with INSR (Homo sapiens, UniProt P06213). More on the design: Thermo Fisher SelectScreen kinase panel: Z'-LYTE and Adapta activity, LanthaScreen binding. The procedure, abridged:
as §1

Assay [6] deals with EPHB1 (Homo sapiens, UniProt P54762). More on the design: Thermo Fisher SelectScreen kinase panel: Z'-LYTE and Adapta activity, LanthaScreen binding. The procedure, abridged: as §1
Assay [7] concerns the target CLK1 (Homo sapiens, UniProt P49759). More on the design: Thermo Fisher SelectScreen kinase panel: Z'-LYTE and Adapta activity, LanthaScreen binding. The procedure, abridged: as §1
The target of assay [8] is T4, MEK1 (Homo sapiens, UniProt Q02750).
T4 construct: gene MAP2K1
On the set-up: Thermo Fisher SelectScreen kinase panel: Z'-LYTE and Adapta activity, LanthaScreen binding. The procedure, abridged:
as §1

The target of assay [9] is LCK (Homo sapiens, UniProt P06239). More on the design: Thermo Fisher SelectScreen kinase panel: Z'-LYTE and Adapta activity, LanthaScreen binding. The procedure, abridged: as §1
The target in assay [10] is GRK3 (Homo sapiens, UniProt P35626). More on the design: Thermo Fisher SelectScreen kinase panel: Z'-LYTE and Adapta activity, LanthaScreen binding. The procedure, abridged:
as §1

Assay [11] has as its target T5, PKG1_alpha (Homo sapiens, UniProt Q13976).
T5 construct: gene PRKG1; isoform alpha
On the set-up: Thermo Fisher SelectScreen kinase panel: Z'-LYTE and Adapta activity, LanthaScreen binding. The procedure, abridged: as §1

For assay [12], the target named is PLK3 (Homo sapiens, UniProt Q9H4B4). On the set-up: Thermo Fisher SelectScreen kinase panel: Z'-LYTE and Adapta activity, LanthaScreen binding. The procedure, abridged: as §1
Assay [13] concerns the target CDK7/cyclinH (Homo sapiens, UniProt P50613). On the set-up: Thermo Fisher SelectScreen kinase panel: Z'-LYTE and Adapta activity, LanthaScreen binding. The procedure, abridged:
as §1

The target of assay [14] is DYRK3 (Homo sapiens, UniProt O43781). More on the design: Thermo Fisher SelectScreen kinase panel: Z'-LYTE and Adapta activity, LanthaScreen binding. The procedure, abridged: as §1
Assay [15] has as its target T6, IKK-epsilon (Homo sapiens, UniProt Q14164).
T6 construct: gene IKBKE
More on the design: Thermo Fisher SelectScreen kinase panel: Z'-LYTE and Adapta activity, LanthaScreen binding. The procedure, abridged: as §1

Assay [16] has as its target CSF1R (Homo sapiens, UniProt P07333). More on the design: Thermo Fisher SelectScreen kinase panel: Z'-LYTE and Adapta activity, LanthaScreen binding. The procedure, abridged:
as §1

In assay [17] the target is T7, CaMKI (Homo sapiens, UniProt Q14012).
T7 construct: gene CAMK1
More on the design: Thermo Fisher SelectScreen kinase panel: Z'-LYTE and Adapta activity, LanthaScreen binding. The procedure, abridged: as §1

In assay [18] the target is T8, MKK6 (Homo sapiens, UniProt P52564).
T8 construct: gene MAP2K6
More on the design: Thermo Fisher SelectScreen kinase panel: Z'-LYTE and Adapta activity, LanthaScreen binding. The procedure, abridged:
as §1

The target of assay [19] is TYK2 (Homo sapiens, UniProt P29597). More on the design: Thermo Fisher SelectScreen kinase panel: Z'-LYTE and Adapta activity, LanthaScreen binding. The procedure, abridged:
as §1

Assay [20] addresses SGK3 (Homo sapiens, UniProt Q96BR1). On the set-up: Thermo Fisher SelectScreen kinase panel: Z'-LYTE and Adapta activity, LanthaScreen binding. The procedure, abridged:
as §1

The target of assay [21] is MAPKAPK3 (Homo sapiens, UniProt Q16644). More on the design: Thermo Fisher SelectScreen kinase panel: Z'-LYTE and Adapta activity, LanthaScreen binding. The procedure, abridged:
as §1

Assay [22] has as its target T9, Hyl (Homo sapiens, UniProt P42679).
T9 construct: gene MATK
On the set-up: Thermo Fisher SelectScreen kinase panel: Z'-LYTE and Adapta activity, LanthaScreen binding. The procedure, abridged:
as §1

Assay [23] deals with ZAP70 (Homo sapiens, UniProt P43403). On the set-up: gene ZAP70; Thermo Fisher SelectScreen kinase panel: Z'-LYTE and Adapta activity, LanthaScreen binding. The method, then:
5 88 GNE684 was tested in Thermo Fisher Scientific SelectScreen assay (Madison, WI) 89 against 221 representative kinases at a concentration of 10 µM, which is 476-fold greater than the Ki app 90 for GNE684 against human RIP1 in the RIP1 enzyme 91 assay. The kinase assays were carried out using Z'-LYTE and Adapta activity and 92 LanthaScreen binding assays (Thermo Fisher Scientific, Madison WI) following 93 protocols developed and performed by Thermo Fisher Scientific 94 (https://www.thermofisher.com/us/en/home/products-and-services/services/custom-95 services/screening-and-profiling-services/selectscreen-profiling-service/selectscreen-96 kinase-profiling-service.html). 97 GNE684 was also tested against 468 kinases in the KINOMEscan scanMAX kinase 98 binding assay panel at a concentration of 10 µM following protocols developed and 99 performed by DiscoverX (http://www.discoverx.com/kinase_profiling).

T7 sequence (Q14012 whole entry): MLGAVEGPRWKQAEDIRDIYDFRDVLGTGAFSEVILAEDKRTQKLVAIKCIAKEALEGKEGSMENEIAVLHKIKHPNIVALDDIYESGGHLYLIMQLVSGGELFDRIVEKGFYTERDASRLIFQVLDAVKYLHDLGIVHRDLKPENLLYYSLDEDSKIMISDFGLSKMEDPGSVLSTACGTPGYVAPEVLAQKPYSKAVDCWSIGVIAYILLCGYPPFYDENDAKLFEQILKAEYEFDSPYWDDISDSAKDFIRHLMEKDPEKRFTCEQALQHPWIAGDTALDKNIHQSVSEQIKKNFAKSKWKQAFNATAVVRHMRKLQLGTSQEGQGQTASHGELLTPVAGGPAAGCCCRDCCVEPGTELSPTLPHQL
CDK7/cyclinH, sequence (P50613 whole entry): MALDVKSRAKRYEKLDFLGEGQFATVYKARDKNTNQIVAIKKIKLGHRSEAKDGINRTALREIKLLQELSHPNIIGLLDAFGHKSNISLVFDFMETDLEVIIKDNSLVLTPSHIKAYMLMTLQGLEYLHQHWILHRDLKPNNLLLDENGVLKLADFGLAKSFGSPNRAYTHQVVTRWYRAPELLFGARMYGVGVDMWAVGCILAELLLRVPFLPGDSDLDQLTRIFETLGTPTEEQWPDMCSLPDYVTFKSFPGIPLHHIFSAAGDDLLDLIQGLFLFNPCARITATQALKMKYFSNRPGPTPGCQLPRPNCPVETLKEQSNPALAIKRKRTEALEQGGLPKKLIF
INSR, sequence (P06213 whole entry): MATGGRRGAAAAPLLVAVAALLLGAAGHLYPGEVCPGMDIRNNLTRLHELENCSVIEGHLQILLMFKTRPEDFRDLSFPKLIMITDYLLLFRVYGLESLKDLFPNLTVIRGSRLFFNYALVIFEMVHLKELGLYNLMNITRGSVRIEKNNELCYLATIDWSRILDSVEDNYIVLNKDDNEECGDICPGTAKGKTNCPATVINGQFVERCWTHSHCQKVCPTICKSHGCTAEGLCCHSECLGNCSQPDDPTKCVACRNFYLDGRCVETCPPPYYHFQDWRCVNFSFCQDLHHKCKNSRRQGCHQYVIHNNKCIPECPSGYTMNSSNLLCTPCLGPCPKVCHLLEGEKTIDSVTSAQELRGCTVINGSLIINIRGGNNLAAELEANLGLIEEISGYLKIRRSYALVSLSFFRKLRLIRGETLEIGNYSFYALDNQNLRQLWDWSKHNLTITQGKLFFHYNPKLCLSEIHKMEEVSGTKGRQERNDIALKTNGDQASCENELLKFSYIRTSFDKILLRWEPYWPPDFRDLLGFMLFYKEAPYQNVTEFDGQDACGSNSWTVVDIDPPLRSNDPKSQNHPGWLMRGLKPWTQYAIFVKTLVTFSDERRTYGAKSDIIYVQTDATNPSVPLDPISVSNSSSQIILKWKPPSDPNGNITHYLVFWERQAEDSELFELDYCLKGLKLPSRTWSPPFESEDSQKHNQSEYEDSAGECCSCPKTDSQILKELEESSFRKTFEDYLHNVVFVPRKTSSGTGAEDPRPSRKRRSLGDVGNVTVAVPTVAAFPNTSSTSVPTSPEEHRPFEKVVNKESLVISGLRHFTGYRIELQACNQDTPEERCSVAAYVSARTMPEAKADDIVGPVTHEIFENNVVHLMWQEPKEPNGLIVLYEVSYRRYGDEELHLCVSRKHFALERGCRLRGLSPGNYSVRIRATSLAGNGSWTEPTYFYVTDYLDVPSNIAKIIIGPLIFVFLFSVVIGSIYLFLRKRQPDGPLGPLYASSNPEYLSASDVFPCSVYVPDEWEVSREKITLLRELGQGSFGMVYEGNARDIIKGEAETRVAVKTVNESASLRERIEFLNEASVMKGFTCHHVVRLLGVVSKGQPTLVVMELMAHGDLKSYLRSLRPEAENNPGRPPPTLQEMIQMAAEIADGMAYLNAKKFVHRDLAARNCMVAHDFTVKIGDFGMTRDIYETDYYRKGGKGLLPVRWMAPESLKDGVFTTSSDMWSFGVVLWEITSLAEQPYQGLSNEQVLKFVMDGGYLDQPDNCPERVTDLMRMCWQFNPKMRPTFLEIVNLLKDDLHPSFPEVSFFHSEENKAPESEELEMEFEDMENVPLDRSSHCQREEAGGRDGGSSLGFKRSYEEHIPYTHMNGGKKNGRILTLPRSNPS
SGK3, sequence (Q96BR1 whole entry): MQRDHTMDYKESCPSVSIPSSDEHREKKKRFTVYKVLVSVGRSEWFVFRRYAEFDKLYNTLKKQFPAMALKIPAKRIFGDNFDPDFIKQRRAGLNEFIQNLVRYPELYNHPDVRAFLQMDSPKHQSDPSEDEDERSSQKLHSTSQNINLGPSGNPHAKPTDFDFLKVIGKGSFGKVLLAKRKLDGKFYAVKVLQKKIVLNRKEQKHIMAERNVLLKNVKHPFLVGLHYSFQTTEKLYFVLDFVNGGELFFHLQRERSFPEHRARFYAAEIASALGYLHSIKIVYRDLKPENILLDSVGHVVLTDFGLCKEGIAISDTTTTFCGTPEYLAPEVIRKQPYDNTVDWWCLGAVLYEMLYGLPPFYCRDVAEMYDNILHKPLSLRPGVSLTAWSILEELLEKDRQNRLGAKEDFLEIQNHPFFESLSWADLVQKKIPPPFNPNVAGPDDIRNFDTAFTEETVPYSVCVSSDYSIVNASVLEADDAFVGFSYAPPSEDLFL
T3 sequence (Q15418 whole entry): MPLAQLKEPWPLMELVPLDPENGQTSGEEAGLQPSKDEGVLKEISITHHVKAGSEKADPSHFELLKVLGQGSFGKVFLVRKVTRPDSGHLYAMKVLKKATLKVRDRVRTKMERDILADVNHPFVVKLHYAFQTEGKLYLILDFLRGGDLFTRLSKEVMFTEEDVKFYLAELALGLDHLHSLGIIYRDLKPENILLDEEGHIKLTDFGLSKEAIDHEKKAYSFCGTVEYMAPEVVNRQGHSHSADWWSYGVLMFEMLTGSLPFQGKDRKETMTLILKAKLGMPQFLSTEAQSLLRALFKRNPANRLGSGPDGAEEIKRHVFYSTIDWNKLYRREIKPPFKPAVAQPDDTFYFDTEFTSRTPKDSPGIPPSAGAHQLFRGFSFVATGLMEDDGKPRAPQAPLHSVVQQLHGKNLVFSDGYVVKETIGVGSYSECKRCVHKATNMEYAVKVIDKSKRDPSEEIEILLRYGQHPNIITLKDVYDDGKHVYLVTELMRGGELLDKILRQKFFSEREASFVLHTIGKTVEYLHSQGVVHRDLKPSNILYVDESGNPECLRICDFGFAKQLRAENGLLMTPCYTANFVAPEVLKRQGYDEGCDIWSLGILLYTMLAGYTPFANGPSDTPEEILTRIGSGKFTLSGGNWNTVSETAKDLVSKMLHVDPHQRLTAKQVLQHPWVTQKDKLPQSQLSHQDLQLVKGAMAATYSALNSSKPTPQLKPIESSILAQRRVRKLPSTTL
MAPKAPK3, sequence (Q16644 whole entry): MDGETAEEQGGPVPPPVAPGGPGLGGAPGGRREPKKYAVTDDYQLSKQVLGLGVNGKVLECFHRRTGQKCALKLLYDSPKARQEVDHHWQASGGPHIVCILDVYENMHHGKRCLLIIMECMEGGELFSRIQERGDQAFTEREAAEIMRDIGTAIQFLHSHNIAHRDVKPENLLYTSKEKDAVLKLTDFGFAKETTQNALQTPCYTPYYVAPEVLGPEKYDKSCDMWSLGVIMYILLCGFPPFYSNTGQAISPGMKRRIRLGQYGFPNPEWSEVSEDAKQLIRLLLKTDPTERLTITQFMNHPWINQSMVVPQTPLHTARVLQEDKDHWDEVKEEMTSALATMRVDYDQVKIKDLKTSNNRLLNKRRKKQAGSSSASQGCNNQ
PAK3, sequence (O75914 whole entry): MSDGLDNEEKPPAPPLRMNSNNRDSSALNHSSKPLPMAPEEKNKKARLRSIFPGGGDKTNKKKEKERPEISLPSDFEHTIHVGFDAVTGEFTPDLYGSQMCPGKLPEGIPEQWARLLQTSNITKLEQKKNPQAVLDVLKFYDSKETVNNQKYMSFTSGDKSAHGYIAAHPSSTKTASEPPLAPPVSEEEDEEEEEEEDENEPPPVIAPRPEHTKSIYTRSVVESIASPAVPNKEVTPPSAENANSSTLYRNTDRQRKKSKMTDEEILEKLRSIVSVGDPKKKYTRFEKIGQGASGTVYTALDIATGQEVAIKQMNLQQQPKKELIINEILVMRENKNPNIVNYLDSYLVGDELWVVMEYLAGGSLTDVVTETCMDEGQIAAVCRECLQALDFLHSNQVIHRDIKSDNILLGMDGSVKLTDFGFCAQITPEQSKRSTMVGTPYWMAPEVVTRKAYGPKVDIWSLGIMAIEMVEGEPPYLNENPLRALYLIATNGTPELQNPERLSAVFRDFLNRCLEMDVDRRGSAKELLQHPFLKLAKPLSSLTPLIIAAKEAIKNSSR
CLK1, sequence (P49759 whole entry): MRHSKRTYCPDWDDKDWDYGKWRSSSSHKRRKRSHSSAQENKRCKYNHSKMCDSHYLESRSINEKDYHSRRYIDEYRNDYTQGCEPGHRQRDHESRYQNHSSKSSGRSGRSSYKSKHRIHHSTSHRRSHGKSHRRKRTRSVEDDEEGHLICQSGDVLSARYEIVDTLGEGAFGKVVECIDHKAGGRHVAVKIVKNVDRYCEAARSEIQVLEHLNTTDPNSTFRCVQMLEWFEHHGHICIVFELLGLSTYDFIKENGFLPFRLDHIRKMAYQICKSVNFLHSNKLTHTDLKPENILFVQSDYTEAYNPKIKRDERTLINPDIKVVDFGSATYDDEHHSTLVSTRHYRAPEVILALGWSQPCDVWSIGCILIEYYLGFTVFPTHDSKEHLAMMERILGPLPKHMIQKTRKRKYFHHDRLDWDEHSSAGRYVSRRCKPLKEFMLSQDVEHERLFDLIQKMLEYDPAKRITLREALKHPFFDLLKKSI

One may read the inhibition as the change of the read-out against control, counted positive when it falls. In the case of `COc1cc2c(cn1)N(C)C(=O)[C@@H](NC(=O)c1nc3n(n1)[C@H](c1ccccc1)CC3)CC2` [GNE684, (S)-N-((S)-7-methoxy-1-methyl-2-oxo-2,3,4,5-tetrahydro-1H-pyrido[3,4-b]azepin-3-yl)-5-phenyl-6,7-dihydro-5H-pyrrolo[1,2-b][1,2,4]triazole-2-carboxamide], the inhibition at 10 µM in assay [1] was -5%; in [2], 6%; in [3], -6.5%; in assay [4] it was 4.5%; in assay [5] it was 3.5%; in [6], 3%. The inhibition at 10 µM in assay [7] was -0.5%; in [8], -7.5%; in [9] it was 5%; in assay [10], 2.5%; in [11], 7%; in assay [12], 5%. Also, the inhibition at 10 µM in assay [13] is 5%; in assay [14], 2%; in assay [15], 3%; in [16], 2%; in assay [17], -5.5%; in assay [18] it was -4.5%. Also, the inhibition at 10 µM in assay [19] was 3.5%; in [20], 1.5%; in assay [21], 3%; in assay [22], 1%; in assay [23], 1%.
